From ChEMBL document CHEMBL3872220, “Amphiphilic xanthones as a potent chemical entity of anti-mycobacterial agents with membrane-targeting properties” (Eur J Med Chem, 2016)
Converted amounts (≈) assume the structure as drawn.

What was measured:
[1] = test system: Mycolicibacterium smegmatis; assay: Antimycobacterial activity against Mycobacterium smegmatis MC2 155 assessed as ATP leakage by measuring extracellular ATP at 4 times MIC measured at 1 hr of post dose by luciferase reporter gene assay; type: functional, str. MC2 155
[2] = test system: Mycolicibacterium smegmatis; assay: Antimycobacterial activity against Mycobacterium smegmatis MC2 155 assessed as ATP leakage by measuring extracellular ATP at 2 times MIC measured immediatey after addition of compounds by luciferase reporter gene assay; type: functional, str. MC2 155
[3] = test system: Mycolicibacterium smegmatis; assay: Antimycobacterial activity against Mycobacterium smegmatis MC2 155 assessed as ATP leakage by measuring intracellular ATP at MIC measured immediatey after addition of compounds by luciferase reporter gene assay; type: functional, str. MC2 155
[4] = test system: Mycolicibacterium smegmatis; assay: Antimycobacterial activity against Mycobacterium smegmatis MC2 155 assessed as ATP leakage by measuring intracellular ATP at MIC measured at 6 hrs post dose by luciferase reporter gene assay; type: functional, str. MC2 155
[5] = test system: Mycolicibacterium smegmatis; assay: Antimycobacterial activity against Mycobacterium smegmatis MC2 155 assessed as ATP leakage by measuring extracellular ATP at 0.5 times MIC measured at 9 hrs post dose by luciferase reporter gene assay; type: functional, str. MC2 155
[6] = test system: Mycolicibacterium smegmatis; assay: Antimycobacterial activity against Mycobacterium smegmatis MC2 155 assessed as ATP leakage by measuring intracellular ATP at 2 times MIC measured at 24 hrs post dose by luciferase reporter gene assay; type: functional, str. MC2 155
[7] = Selectivity index, ratio of CC50 for human corneal fibroblasts assessed as reduction in ATP level to MIC90 for Mycobacterium bovis BCG ATCC 35734
CYP2D6 = CYP2D6 (Homo sapiens, UniProt P10635); assay: Inhibition of CYP2D6 in human liver microsomes at 10 uM using bufuralol as substrate preincubated for 5 min followed by NADPH addition measured after 10 mins by LC-MS/MS method relative to control; type: ADME; conditions: probe bufuralol
Sequence of CYP2D6 (P10635 whole entry): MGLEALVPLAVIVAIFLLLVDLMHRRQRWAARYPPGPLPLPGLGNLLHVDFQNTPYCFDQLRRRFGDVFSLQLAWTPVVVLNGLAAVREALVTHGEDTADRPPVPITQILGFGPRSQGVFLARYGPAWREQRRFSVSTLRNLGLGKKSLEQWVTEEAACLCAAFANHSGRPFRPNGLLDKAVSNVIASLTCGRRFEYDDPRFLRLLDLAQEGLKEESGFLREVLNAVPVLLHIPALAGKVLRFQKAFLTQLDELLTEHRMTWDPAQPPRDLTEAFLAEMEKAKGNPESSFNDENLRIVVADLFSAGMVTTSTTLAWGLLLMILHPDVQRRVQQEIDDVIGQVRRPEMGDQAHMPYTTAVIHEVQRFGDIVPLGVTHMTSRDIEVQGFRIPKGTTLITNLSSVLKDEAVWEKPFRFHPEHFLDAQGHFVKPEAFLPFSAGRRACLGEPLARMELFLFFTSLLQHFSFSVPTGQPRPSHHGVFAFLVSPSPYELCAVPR

[8] = test system: Mycolicibacterium smegmatis; assay: Antimycobacterial activity against Mycobacterium smegmatis MC2 155 assessed as ATP leakage by measuring intracellular ATP at 2 times MIC measured at 3 hrs post dose by luciferase reporter gene assay; type: functional, str. MC2 155
[9] = test system: Mycolicibacterium smegmatis; assay: Antimycobacterial activity against Mycobacterium smegmatis MC2 155 assessed as ATP leakage by measuring extracellular ATP at 0.5 times MIC measured at 6 hrs post dose by luciferase reporter gene assay; type: functional, str. MC2 155
[10] = Hemolytic activity against New Zealand white rabbit RBC assessed as hemoglobin release measured after 1 hr; type: ADME, cell-based, Oryctolagus cuniculus, Erythrocyte; conditions: red blood cells
[11] = test system: Mycolicibacterium smegmatis; assay: Induction of impaired membrane integrity in Mycobacterium smegmatis MC2 155 assessed as reduction in membrane integrity at 0.5 times MIC by SYTO-9/propium iodide stain based Baclight assay relative to control; type: functional, str. MC2 155; set-up: scale not given: the % may be the effect or the level left
Lipid bilayer = assay: Induction of membrane damage in CI/DOPG/DOPI large unilamellar vesicles assessed as calcein leakage at 1:2 compound to lipid ratio by fluorescence based […] assay relative to control
[12] = test system: Mycolicibacterium smegmatis; assay: Antimycobacterial activity against Mycobacterium smegmatis MC2 155 assessed as ATP leakage by measuring intracellular ATP at 2 times MIC measured at 9 hrs post dose by luciferase reporter gene assay; type: functional, str. MC2 155
[13] = test system: Mycolicibacterium smegmatis; assay: Antimycobacterial activity against Mycobacterium smegmatis MC2 155 assessed as ATP leakage by measuring intracellular ATP at 4 times MIC measured immediatey after addition of compounds by luciferase reporter gene assay; type: functional, str. MC2 155
[14] = test system: Mycolicibacterium smegmatis; assay: Antimycobacterial activity against Mycobacterium smegmatis MC2 155 assessed as ATP leakage by measuring extracellular ATP at 0.5 times MIC measured immediatey after addition of compounds by luciferase reporter gene assay by luciferase reporter gene assay by luciferase reporter gene assay; type: functional, str. MC2 155
[15] = test system: Mycolicibacterium smegmatis; assay: Antimycobacterial activity against Mycobacterium smegmatis MC2 155 assessed as ATP leakage by measuring intracellular ATP at 2 times MIC measured at 1 hr of post dose by luciferase reporter gene assay; type: functional, str. MC2 155
[16] = test system: Mycolicibacterium smegmatis; assay: Antimycobacterial activity against Mycobacterium smegmatis MC2 155 assessed as ATP leakage by measuring extracellular ATP at 2 times MIC measured at 9 hrs post dose by luciferase reporter gene assay; type: functional, str. MC2 155
[17] = test system: Mycolicibacterium smegmatis; assay: Antimycobacterial activity against Mycobacterium smegmatis MC2 155 assessed as ATP leakage by measuring extracellular ATP at 4 times MIC measured at 3 hrs post dose by luciferase reporter gene assay; type: functional, str. MC2 155
[18] = test system: Mycolicibacterium smegmatis; assay: Antimycobacterial activity against Mycobacterium smegmatis MC2 155 assessed as ATP leakage by measuring intracellular ATP at 0.5 times MIC measured at 9 hrs post dose by luciferase reporter gene assay; type: functional, str. MC2 155
[19] = test system: Mycolicibacterium smegmatis; assay: Antimycobacterial activity against Mycobacterium smegmatis MC2 155 assessed as ATP leakage by measuring intracellular ATP at 4 times MIC measured at 9 hrs post dose by luciferase reporter gene assay; type: functional, str. MC2 155
[20] = test system: Mycolicibacterium smegmatis; assay: Antimycobacterial activity against Mycobacterium smegmatis MC2 155 assessed as ATP leakage by measuring extracellular ATP at 0.5 times MIC measured at 24 hrs post dose by luciferase reporter gene assay; type: functional, str. MC2 155
[21] = test system: Mycolicibacterium smegmatis; assay: Antimycobacterial activity against Mycobacterium smegmatis MC2 155 assessed as ATP leakage by measuring intracellular ATP at MIC measured at 24 hrs post dose by luciferase reporter gene assay; type: functional, str. MC2 155
[22] = test system: Mycolicibacterium smegmatis; assay: Antimycobacterial activity against Mycobacterium smegmatis MC2 155 assessed as ATP leakage by measuring extracellular ATP at MIC measured immediatey after addition of compounds by luciferase reporter gene assay; type: functional, str. MC2 155
[23] = test system: Mycolicibacterium smegmatis; assay: Antimycobacterial activity against Mycobacterium smegmatis MC2 155 assessed as ATP leakage by measuring intracellular ATP at 0.5 times MIC measured immediatey after addition of compounds by luciferase reporter gene assay; type: functional, str. MC2 155
[24] = test system: Mycolicibacterium smegmatis; assay: Antimycobacterial activity against Mycobacterium smegmatis MC2 155 assessed as ATP leakage by measuring extracellular ATP at MIC measured at 3 hrs post dose by luciferase reporter gene assay; type: functional, str. MC2 155
[25] = test system: Mycolicibacterium smegmatis; assay: Antimycobacterial activity against Mycobacterium smegmatis MC2 155 assessed as ATP leakage by measuring extracellular ATP at 2 times MIC measured at 1 hr of post dose by luciferase reporter gene assay; type: functional, str. MC2 155
[26] = test system: Mycolicibacterium smegmatis; assay: Antimycobacterial activity against Mycobacterium smegmatis MC2 155 assessed as ATP leakage by measuring extracellular ATP at MIC measured at 9 hrs post dose by luciferase reporter gene assay; type: functional, str. MC2 155
[27] = test system: Mycolicibacterium smegmatis; assay: Antimycobacterial activity against Mycobacterium smegmatis MC2 155 assessed as ATP leakage by measuring extracellular ATP at 2 times MIC measured at 24 hrs post dose by luciferase reporter gene assay; type: functional, str. MC2 155
[28] = test system: Mycolicibacterium smegmatis; assay: Antimycobacterial activity against Mycobacterium smegmatis MC2 155 after 24 hrs by broth dilution assay; type: functional; conditions: str. MC2 155, 24 h
[29] = test system: Mycobacterium tuberculosis; assay: Antimycobacterial activity against Mycobacterium tuberculosis clinical isolate 01;001 assessed as reduction in 2 log10 bacterial colonies measured after 14 to 21 days by agar dilution method; type: functional
[30] = test system: Mycobacterium tuberculosis; assay: Antimycobacterial activity against Mycobacterium tuberculosis clinical isolate 01;092 assessed as reduction in 2 log10 bacterial colonies measured after 14 to 21 days by agar dilution method; type: functional
[31] = test system: Mycobacterium tuberculosis; assay: Antimycobacterial activity against Mycobacterium tuberculosis clinical isolate 01;087 assessed as reduction in 2 log10 bacterial colonies measured after 14 to 21 days by agar dilution method; type: functional
[32] = test system: Mycobacterium tuberculosis; assay: Antimycobacterial activity against Mycobacterium tuberculosis clinical isolate 01;111 assessed as reduction in 2 log10 bacterial colonies measured after 14 to 21 days by agar dilution method; type: functional
[33] = test system: Mycobacterium tuberculosis; assay: Antimycobacterial activity against Mycobacterium tuberculosis H37Rv ATCC 27294 assessed as reduction in 2 log10 bacterial colonies measured after 14 to 21 days by agar dilution method; type: functional

## CCCN(CCC)CCCCOc1cc2oc3cc(OCCCCN(CCC)CCC)c(OC)c(CC=C(C)C)c3c(=O)c2c(O)c1CC=C(C)C
[1]
  Activity: 94.3%
[2]
  Activity: 4%
[3]
  Activity: 97.7%
[4]
  Activity: 12%
[5]
  Activity: 33.5%
[6]
  Activity: 4.7%
[7]
  Selectivity Index: 15 - 40
CYP2D6
  inhibition at 10 min, 10 µM: 0%
[8]
  Activity: 2.6%
[9]
  Activity: 30.6%
[10]
  HC50 at 1 h: > 277 µM
[11]
  Activity: <15%
Lipid bilayer
  Activity: 13.3%
[12]
  Activity: 3.9%
[13]
  Activity: 95.7%
[14]
  Activity: 0%
[15]
  Activity: 2.8%
[16]
  Activity: 96.1%
[17]
  Activity: 91.1%
[18]
  Activity: 66.5%
[19]
  Activity: 15.7%
[20]
  Activity: 53.6%
[21]
  Activity: 11.9%
[22]
  Activity: 2.3%
[23]
  Activity: 100%
[24]
  Activity: 91.8%
[25]
  Activity: 97.2%
[26]
  Activity: 89.4%
[27]
  Activity: 95.3%
[28]
  MIC90: 3.2 µM (≈ 2.31 µg/mL)

## CCN(CC)CCCCOc1cc2oc3cc(OCCCCN(CC)CC)c(OC)c(CC=C(C)C)c3c(=O)c2c(O)c1CC=C(C)C
[1]
  Activity: 97.4%
[2]
  Activity: 1.3%
[29]
  MIC: 4 µg/mL (≈ 6.02 µM)
[3]
  Activity: 99.2%
[4]
  Activity: 20.1%
[5]
  Activity: 23.2%
[6]
  Activity: 13.3%
CYP2D6
  inhibition at 10 min, 10 µM: 6%
[8]
  Activity: 2.7%
[9]
  Activity: 12.2%
[11]
  Activity: <15%
[30]
  MIC: 2 µg/mL (≈ 3.01 µM)
Lipid bilayer
  Activity: 47%
[12]
  Activity: 3.4%
[13]
  Activity: 98.7%
[14]
  Activity: 0%
[15]
  Activity: 4.4%
[31]
  MIC: 8 µg/mL (≈ 12 µM)
[16]
  Activity: 96.6%
[32]
  MIC: 4 µg/mL (≈ 6.02 µM)
[17]
  Activity: 97.5%
[18]
  Activity: 76.8%
[19]
  Activity: 2.7%
[20]
  Activity: 66.7%
[21]
  Activity: 55.6%
[22]
  Activity: 0.8%
[33]
  MIC: 2 µg/mL (≈ 3.01 µM)
[23]
  Activity: 100%
[24]
  Activity: 88%
[25]
  Activity: 95.6%
[26]
  Activity: 82.4%
[27]
  Activity: 86.7%
[28]
  MIC90: 3.2 µM (≈ 2.13 µg/mL)

## COc1c(OCCCCN2CCOCC2)cc2oc3cc(OCCCCN4CCOCC4)c(CC=C(C)C)c(O)c3c(=O)c2c1CC=C(C)C
[1]
  Activity: 42.7%
[2]
  Activity: 3%
[29]
  MIC: 4 µg/mL (≈ 5.77 µM)
[3]
  Activity: 97.7%
[4]
  Activity: 63.7%
[5]
  Activity: 26.5%
[6]
  Activity: 5.3%
[7]
  Selectivity Index: 15 - 40
CYP2D6
  inhibition at 10 min, 10 µM: 0%
[8]
  Activity: 36.6%
[9]
  Activity: 13.2%
[10]
  HC50 at 1 h: > 289 µM
[30]
  MIC: 4 µg/mL (≈ 5.77 µM)
[12]
  Activity: 15.6%
[13]
  Activity: 96.2%
[14]
  Activity: 0%
[15]
  Activity: 69.6%
[31]
  MIC: 8 µg/mL (≈ 11.5 µM)
[16]
  Activity: 84.4%
[32]
  MIC: 4 µg/mL (≈ 5.77 µM)
[17]
  Activity: 55.3%
[18]
  Activity: 73.5%
[19]
  Activity: 7.9%
[20]
  Activity: 47.5%
[21]
  Activity: 11.3%
[22]
  Activity: 2.3%
[33]
  MIC: 4 µg/mL (≈ 5.77 µM)
[23]
  Activity: 100%
[24]
  Activity: 44.7%
[25]
  Activity: 30.4%
[26]
  Activity: 58.6%
[27]
  Activity: 94.7%
[28]
  MIC90: 35 µM (≈ 24.3 µg/mL)
